Results on one compound are retold here after patent publication US8637269B2, “Method for the detection of melamine” (Bioo Scientific Corporation, priority 2009, dated 2014).

The assay addresses recombinant MDA enzyme (melamine deaminase, Tri A) (Paracidovorax citrulli, UniProt Q9EYU0). The assay is described as follows: Enzymatic detection of melamine in microtiter plates (MDA-mediated conversion to ammonia, indophenol colour). To be noted: melamine (1000 ppm stock) and MDA enzyme diluted in 0.1 M Na-MOPS pH 7, overnight (about 12 hours), room temperature; salicylate/nitroprusside and NaOH/hypochlorite reagents; FIG. 2. The format is biochemical, Pseudomonas sp. strain NRRL B-12227. An excerpt:
The TriA gene encoding the melamine deaminase enzyme was inserted into the multiple cloning site region of the pET 24b bacterial expression plasmid. This subcloning strategy places the gene under the transcriptional regulation of the T7 RNA polymerase and fuses a His6 peptide tag onto the C-terminus of the protein to facilitate purification. We expressed the protein (MW about 50 kDa) in E. coli strain BL21 (DE3) and obtained significant amounts of soluble protein in the induced bacterial cultures. After disruption the lysed cell extract was passed over a Talon Cobalt column to bind the His6-tagged protein. After washing the column the bound protein was eluted from the column and dialyzed to remove imidazole.
Purified, desalted recombinant MDA enzyme (about 2 mg/ml in 0.1 M Na-MOPS buffer pH 7) and melamine (1000 ppm) were diluted into 0.1 M Na-MOPS buffer (pH 7) and incubated overnight (about 12 hours) at room temperature. Reaction aliquots were removed and tested for the production of ammonia by mixing the samples with salicylate/nitroprusside and NaOH/hypochlorite reagents in 96 well microtiter plates.

Chain of recombinant MDA enzyme (melamine deaminase, Tri A) (Q9EYU0 whole entry): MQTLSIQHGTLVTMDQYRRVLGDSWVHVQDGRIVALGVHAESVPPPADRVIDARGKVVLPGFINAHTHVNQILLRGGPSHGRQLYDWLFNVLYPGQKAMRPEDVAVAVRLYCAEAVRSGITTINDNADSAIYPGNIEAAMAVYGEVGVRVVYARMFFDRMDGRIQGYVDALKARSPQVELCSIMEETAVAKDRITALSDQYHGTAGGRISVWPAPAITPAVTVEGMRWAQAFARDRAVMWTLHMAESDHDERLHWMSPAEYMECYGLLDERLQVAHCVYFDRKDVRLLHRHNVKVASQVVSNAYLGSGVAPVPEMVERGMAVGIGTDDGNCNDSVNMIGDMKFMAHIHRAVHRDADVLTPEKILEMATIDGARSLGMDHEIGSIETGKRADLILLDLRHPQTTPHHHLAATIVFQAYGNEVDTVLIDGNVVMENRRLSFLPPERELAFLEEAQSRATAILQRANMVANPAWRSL

With `Nc1nc(N)nc(N)n1` [melamine], the “color change indicating MDA-mediated conversion of melamine to ammonia” value is listed as “strong color change”.
